What was measured:
[1] = target: T1, recombinant human DNA topo I (Homo sapiens, UniProt P11387); test: Topo I inhibitory assay (pBR322 relaxation); type: biochemical
T1 construct: purchased Topo GEN INC., USA
T1 sequence (P11387 1-765): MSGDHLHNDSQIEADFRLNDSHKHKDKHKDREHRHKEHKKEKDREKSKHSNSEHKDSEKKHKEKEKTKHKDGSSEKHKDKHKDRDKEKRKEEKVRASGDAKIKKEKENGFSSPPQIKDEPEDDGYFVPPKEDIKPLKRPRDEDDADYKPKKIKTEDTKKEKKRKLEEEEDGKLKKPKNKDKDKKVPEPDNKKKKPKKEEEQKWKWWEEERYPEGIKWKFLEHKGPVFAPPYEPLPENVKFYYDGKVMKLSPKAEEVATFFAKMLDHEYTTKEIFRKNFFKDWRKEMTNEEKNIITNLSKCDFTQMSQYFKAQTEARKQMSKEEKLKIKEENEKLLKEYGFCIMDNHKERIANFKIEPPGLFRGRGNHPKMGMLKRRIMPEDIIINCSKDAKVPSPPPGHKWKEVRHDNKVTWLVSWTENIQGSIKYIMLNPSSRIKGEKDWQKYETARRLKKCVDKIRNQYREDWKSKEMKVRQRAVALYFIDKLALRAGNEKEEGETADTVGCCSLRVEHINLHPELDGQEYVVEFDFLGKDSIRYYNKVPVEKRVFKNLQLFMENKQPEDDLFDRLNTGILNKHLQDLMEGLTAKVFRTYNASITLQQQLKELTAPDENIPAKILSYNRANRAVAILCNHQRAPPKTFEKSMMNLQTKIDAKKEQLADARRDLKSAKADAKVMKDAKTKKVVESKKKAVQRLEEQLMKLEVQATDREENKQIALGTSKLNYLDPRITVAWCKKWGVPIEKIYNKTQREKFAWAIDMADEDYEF
Protocol: All the tested compounds were dissolved in DMSO and the DNA topoisomerase I and II inhibitory activity of each compound was measured as follows according to previously reported methods. Mixture comprising of 100 ng supercoiled pBR322 plasmid DNA (Thermo Scientific, USA) and 0.2 ~ 1 unit of recombinant human DNA topo I (Topo GEN INC., USA) or topo IIα (USB Corp., USA) was incubated with or without the prepared compounds in the assay buffer (For topo I, 10 mM Tris-HCl (pH 7.9), 150 mM NaCl and 0.1% BSA, 0.1 mM spermidine and 5% glycerol; for topo II, 10 mM Tris-HCl (pH 7.9), 50 mM NaCl, 50 mM KCl, 5 mM MgCl2, 1 mM EDTA, 1 mM ATP and […] BSA) for 30 min at 37 ◦C. The reaction with final volume of 10 μL was stopped by adding the topo stop buffer (For topo I, 10% SDS solution containing 0.2% bromophenol blue, 0.2% xylene cyanol and 30% glycerol; for topo II, 7 mM EDTA). The reaction products were electrophoresed on 0.8% agarose gel at 50 V for 1 h with TAE electrophoresis buffer. The gels were stained in an EtBr solution (0.5 mg/mL) and visualized by transillumination with UV light and were quantitated using Alpha Tech ImagerTM (Alpha Innotech Corp., USA).

[2] = system: Panc-1 (pancreas cancer cell line); test: Antiproliferative assay, Panc-1; type: cell-based; settings: Homo sapiens, read-out: Antiproliferative activity IC50 ± SEM, Panc-1
From the text: (§1) See Supplementary Appendix S1A.
(§2) DMSO (0.1%) was used as control.

[3] = system: A-549 (epithelial cancer cell line); test: Antiproliferative assay, A-549; type: cell-based; settings: Homo sapiens, A549; read-out: Antiproliferative activity IC50 ± SEM, A-549
From the text: as §1, §2

[4] = Cell viability assay (MTT) on normal cell line; type: cell-based; settings: human, MCF-10A mammary epithelial cells, 50 µM of compound;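 further: values are percent cell viability not percent inhibition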
Protocol: To study the effect of 4a-l and 5a-c on normal cell lines, a cell viability assay was done using the MCF-10A (human mammary gland epithelial) cell line ([Abdelbaset et al., 2019]; [Al-Wahaibi et al., 2020]). This study uses a concentration of 50 µM of the investigated compound for 4 days, after which cell viability is evaluated.
To study the effect of 4a-l and 5a-c on normal cell lines, a cell viability assay was done using the MCF-10A (human mammary gland epithelial) cell line ([Abdelbaset et al., 2019]; [Al-Wahaibi et al., 2020]). See Supplementary Appendix S1A.
MTT assay was carried out to study the effect of compounds on mammary epithelial cells (MCF-10A). The medium in which cells were propagated contained Dulbecco's modified Eagle's medium (DMEM)/ Ham's F-12 medium (1:1) supplemented with epidermal growth factor (20 ng/mL), hydrocortisone (500 ng/mL), insulin (10 μg/mL), 2 mM glutamine and 10% fetal calf serum. After every 2-3 days, the cells were passaged using trypsin ethylenediamine tetra acetic acid (EDTA). The cells were seeded at a density of 10^4 cells mL^-1 in flat-bottomed culture plates containing 96 wells each. After 24 h, medium was removed from the plates and the compounds in (in 0.1% DMSO) were added (in 200 μL medium to yield a final concentration of 0.1% v/v) to the wells of plates. A single compound was designated with four wells followed by incubation of plates for 96h at 37°C. After incubation, medium was removed completely from the plates followed by addition of MTT (0.4 mg/mL in medium) to each well and subsequent incubation of plates for 3h. MTT (along with the medium) was removed and DMSO (150μL) was added to each well of the culture plates, followed by vortexing and subsequent measurement of absorbance (at 540 nm) using microplate reader. The data are shown as percentage inhibition of proliferation in comparison with controls containing 0.1% DMSO.

[5] = system: four cancer cell lines (A-549, MCF-7, Panc-1, HT-29); test: Antiproliferative assay, average over the four cancer cell lines (GI50); settings: for IC50: read-out: Antiproliferative activity IC50, Average (mean GI50); for Fold less potent than the reference doxorubicin (GI50): mean GI50 compared with doxorubicin
Protocol: (§3) The IC50 of each compound was calculated using doxorubicin as the reference.
(§4) To explore the antiproliferative potential of compounds MTT assay was performed according to previously reported procedure using different cell lines to explore the antiproliferative potential of compounds propidium iodide fluorescence assay was performed using different cell lines. To calculate the total nuclear DNA, a fluorescent dye (propidium iodide, PI) is used which can attach to the DNA, thus offering a quick and precise technique. PI cannot pass through the cell membrane and its signal intensity can be considered as directly proportional to quantity of cellular DNA. Cells whose cell membranes are damaged or have changed permeability are counted as dead ones. The assay was performed by seeding the cells of different cell lines at a density of 3000-7500 cells/well (in 200µl medium) in culture plates followed by incubation for 24h at 37 °C in humidified 5% CO2/95% air atmospheric conditions. The medium was removed; the compounds were added to the plates at 10 µM concentrations (in 0.1% DMSO) in triplicates, followed by incubation for 48 h. DMSO (0.1%) was used as control. After incubation, medium was removed followed by the addition of PI (25 µl, 50µg/mL in water/medium) to each well of the plates. At -80 °C, the plates were allowed to freeze for 24 h, followed by thawing at 25 °C. A fluorometer (Polar-Star BMG Tech) was used to record the readings at excitation and emission wavelengths of 530 and 620 nm for each well. The percentage cytotoxicity of compounds was calculated using the following formula:

[6] = system: MCF-7 (breast cancer cell line); test: Antiproliferative assay, MCF-7; type: cell-based; settings: Homo sapiens, MCF7; read-out: Antiproliferative activity IC50 ± SEM, MCF-7
From the text: as §1, §2

[7] = system: HT-29 (colon cancer cell line); test: Antiproliferative assay, HT-29; settings: Homo sapiens, HT-29, read-out: Antiproliferative activity IC50 ± SEM, HT-29
Protocol: as §3, §4

Structure (SMILES) | inhibition at 20 µM [1] | inhibition at 100 µM [1] | IC50 [2] | IC50 [3] | viability at 4 days, 50 µM [4] | IC50 [5] | melting point | IC50 [6] | IC50 [7] | Fold less potent than the reference doxorubicin (GI50) [5]
CC[C@@]1(O)C(=O)OCc2c1cc1n(c2=O)Cc2cc3ccccc3nc2-1 [Camptothecin, reference compound] | 40% | 82.6% | – | – | – | – | – | – | – | –
O=c1cc(/N=C(\C2CCCC2)N2CCCCC2)c2ccccc2[nH]1 [Compound 4a, (E) 4-((Cyclopentyl(piperidin-1-yl)methylene)amino)quinolin-2(1H)-one] | – | – | 5.4 ± 0.5 µM | 5.9 ± 0.5 µM | 85% | 5.5 µM | 210 °C | 5.1 ± 0.5 µM | 5.5 ± 0.5 µM | –
COc1ccc2[nH]c(=O)cc(/N=C(\C3CCCC3)N3CCCCC3)c2c1 [Compound 4c, (E) 4-((Cyclopentyl(piperidin-1-yl)methylene)amino)-6-methoxyquinolin-2(1H)-one] | – | – | 2.05 ± 0.2 µM | 2.3 ± 0.2 µM | 91% | 2.1 µM | 250 °C | 1.9 ± 0.2 µM | 2.2 ± 0.2 µM | –
Cn1c(=O)cc(/N=C(\C2CCCC2)N2CCCCC2)c2ccccc21 [Compound 4f, (E) 4-((Cyclopentyl(piperidin-1-yl)methylene)amino)-1-methylquinolin-2(1H)-one] | – | – | 7.9 ± 0.8 µM | 8 ± 0.8 µM | 87% | 7.8 µM | 142 °C | 7.5 ± 0.8 µM | 7.7 ± 0.8 µM | –
O=c1cc(/N=C(\C2CCCC2)N2CCOCC2)c2ccccc2[nH]1 [Compound 4g, (E) 4-((Cyclopentyl(morpholino)methylene)amino)quinolin-2(1H)-one] | – | – | 6.1 ± 0.6 µM | 6.3 ± 0.6 µM | 89% | 6.1 µM | – | 5.9 ± 0.6 µM | 6.2 ± 0.6 µM | at least 6 fold
Cc1ccc2[nH]c(=O)cc(/N=C(\C3CCCC3)N3CCOCC3)c2c1 [Compound 4h, (E) 4-((Cyclopentyl(morpholino)methylene)amino)-6-methylquinolin-2(1H)-one] | – | – | 2.3 ± 0.2 µM | 2.6 ± 0.2 µM | 91% | 2.3 µM | 226 °C | 1.9 ± 0.2 µM | 2.3 ± 0.2 µM | –
O=c1cc(/N=C(\C2CCCC2)N2CCOCC2)c2cc(Cl)ccc2[nH]1 [Compound 4j, (E) 4-((Cyclopentyl(morpholino)methylene)amino)-6-chloroquinolin-2(1H)-one] | – | – | 3.1 ± 0.3 µM | 3.7 ± 0.3 µM | 89% | 3.3 µM | 247 °C | 2.9 ± 0.3 µM | 3.5 ± 0.3 µM | –
Cc1cccc2c(/N=C(\C3CCCC3)N3CCOCC3)cc(=O)[nH]c12 [Compound 4k, (E) 4-((Cyclopentyl(morpholino)methylene)amino)-8-methylquinolin-2(1H)-one] | – | – | 4.2 ± 0.4 µM | 4.6 ± 0.4 µM | 91% | 4.2 µM | 220 °C | 4.05 ± 0.4 µM | 4.1 ± 0.4 µM | –
Cn1c(=O)cc(/N=C(\C2CCCC2)N2CCOCC2)c2ccccc21 [Compound 4l, (E) 4-((Cyclopentyl(morpholino)methylene)amino)-1-methylquinolin-2(1H)-one] | – | – | 7.4 ± 0.7 µM | 7.6 ± 0.7 µM | 89% | 7.3 µM | – | 7.1 ± 0.7 µM | 7.2 ± 0.7 µM | at least 6 fold
O=c1cc(/N=C(\C2CCCC2)N2CCN(/C(=N/c3cc(=O)[nH]c4ccccc34)C3CCCC3)CC2)c2ccccc2[nH]1 [Compound 5a, 4,4'-((1E,1′E)-(piperazine-1,4-diylbis(cyclopentylmethanylylidene))bis(azanylylid-ene))bis(quinolin-2(1H)-one)] | – | – | 4.9 ± 0.3 µM | 5.15 ± 0.3 µM | 91% | 5 µM | 360 °C | 4.7 ± 0.4 µM | 5.1 ± 0.3 µM | –
Cc1ccc2[nH]c(=O)cc(/N=C(\C3CCCC3)N3CCN(/C(=N/c4cc(=O)[nH]c5ccc(C)cc45)C4CCCC4)CC3)c2c1 [Compound 5b, 4,4'-((1E,1′E)-(piperazine-1,4-diylbis(cyclopentylmethanylylidene))bis(azanylylid-ene))bis(6-methylquinolin-2(1H)-one)] | – | – | 3.9 ± 0.3 µM | 4.1 ± 0.3 µM | 91% | 3.9 µM | 355 °C | 3.7 ± 0.3 µM | 3.8 ± 0.3 µM | –
COc1cccc2c1C(=O)c1c(O)c3c(c(O)c1C2=O)C[C@@](O)(C(=O)CO)C[C@@H]3O[C@H]1C[C@H](N)[C@H](O)[C@H](C)O1 [Doxorubicin, reference compound] | – | – | 1.4 ± 0.2 µM | 1.2 ± 0.1 µM | – | 1.1 µM | – | 0.9 ± 0.1 µM | 1 ± 0.1 µM | –

Reference: paper PMC9716094, “Synthesis of novel amidines via one-pot three component reactions: Selective topoisomerase I inhibitors with antiproliferative properties” (Frontiers in Chemistry, 2022)
